Patent US6949544B2, “Inhibitors of c-Jun N-terminal kinases (JNK) and other protein kinases” (Vertex Pharmaceuticals Incorporated, priority 2001, dated 2005)

Legend:
Format in all cases: biochemical
activated JNK3 = molecular target: T1, activated JNK3 (Homo sapiens, UniProt P53779); assay: JNK inhibition assay (spectrophotometric coupled-enzyme assay); conditions: 10 nM activated JNK3, 10 μM ATP; read-out: Activity in the JNK3 Inhibition Assay (Ki rating A-C)
T1 construct: One such construct encodes amino acid residues Ser40-Glu402 of JNK3α1 and is preceded by Met and Gly residues; Met-Gly (initiator methionine and added glycine) (N); made in house; host or cells: E. coli BL21 (DE3)
Text: A BLAST search of the EST database using the published JNK3α1 cDNA as a query identified an EST clone (#632588) that contained the entire coding sequence for human JNK3α1. Polymerase chain reactions (PCR) using pfu polymerase (Strategene) were used to introduce restriction sites into the cDNA for cloning into the pET-15B expression vector at the NcoI and BamHI sites. The protein was expressed in E. coli. […] This truncation corresponds to Ser 2 of JNK1 and JNK2 proteins, and is preceded by a methionine (initiation) and a glycine residue. The glycine residue was added in order to introduce an NcoI site for cloning into the expression vector. In addition, systematic C-terminal truncations were performed by PCR to identify a construct that give rise to diffraction-quality crystals.
5 mg of JNK3 was diluted to 0.5 mg/ml in 50 mM HEPES buffer, pH 7.5, containing 100 mM NaCl, 5 mM DTT, 20 mM MgCl2 and 1 mM ATP. GST-MKK7(DD) was added at a molar ratio of 1:2.5 GST-MKK7:JNK3. After incubation for 30 minutes at 25° C., the reaction mixture was concentrated 5-fold by ultrafiltration in a Centriprep-30 (Amicon, Beverly, Mass.), diluted to 10 ml and an additional 1 mM ATP added. This procedure was repeated three times to remove ADP and replenish ATP. The final addition of ATP was 5 mM and the mixture incubated overnight at 4° C.
The activated JNK3/GST-MKK7(DD) reaction mixture was exchanged into 50 mM HEPES buffer, pH 7.5, containing 5 mM DTT and 5% glycerol (w/v) by dialysis or ultrafiltration. The reaction mixture was adjusted to 1.1 M potassium phosphate, pH 7.5, and purified by hydrophobic interaction chromatography (at 25° C.) using a Rainin Hydropore column. […] Activated JNK3 (i.e. doubly phosphorylated JNK3) was stored at −70° C. at 0.25-1 mg/ml.
Compounds were assayed for the inhibition of JNK3 by a spectrophotometric coupled-enzyme assay. In this assay, a fixed concentration of activated JNK3 (10 nM) was incubated with various concentrations of a potential inhibitor dissolved in DMSO for 10 minutes at 30° C. in a buffer containing 0.1 M HEPES buffer, pH 7.5, containing 10 mM MgCl2, 2.5 mM phosphoenolpyruvate, 200 μM NADH, 150 μg/mL pyruvate kinase, 50 μg/mL lactate dehydrogenase, and 200 μM EGF receptor peptide. […] The reaction was initiated by the addition of 10 μM ATP and the assay plate is inserted into the spectrophotometer's assay plate compartment that was maintained at 30° C. The decrease of absorbance at 340 nm was monitored as a function of time. The rate data as a function of inhibitor concentration was fitted to competitive inhibition kinetic model to determine the Ki.

CDK-2/Cyclin A = CDK-2/Cyclin A (Homo sapiens, UniProt P24941); assay: CDK2 inhibition assay (standard coupled enzyme assay); conditions: 25 nM CDK-2/Cyclin A; read-out: CDK2 Inhibitory Activity (Ki rating A-C)
Procedure: Compounds were screened in the following manner for their ability to inhibit CDK2 using a standard coupled enzyme assay (Fox et al (1998) Protein Sci 7, 2249).
To an assay stock buffer solution containing 0.1M HEPES 7.5, 10 mM MgCl2, 1 mM DTT, 25 mM NaCl, 2.5 mM phosphoenolpyruvate, […], […], […], […], and 100 μM peptide ([…], American Peptide, Sunnyvale, Calif.) was added a DMSO solution of a compound of the present invention to a final concentration of 30 μM. The resulting mixture was incubated at 30° C. for 10 minutes.
The reaction was initiated by the addition of 10 μL of CDK-2/Cyclin A stock solution to give a final concentration of 25 nM in the assay. The rates of reaction were obtained by monitoring absorbance at 340 nm over a 5-minute read time at 30° C. using a BioRad Ultramark plate reader (Hercules, Calif.). The Ki values were determined from the rate data as a function of inhibitor concentration.

[1] = molecular target: T2, Lck kinase purified from bovine thymus (Bos taurus, UniProt Q3ZCM0); assay: Lck inhibition assay (33P incorporation into poly Glu-Tyr); conditions: for Ki: 10 μM ATP, read-out: Activity in the Lck Inhibition Assay (Ki rating A-C)
T2 construct: Lck kinase purified from bovine thymus; purchased Upstate Biotechnology 14-106; host or cells: bovine thymus (tissue-purified)
Procedure: The compounds were assayed as inhibitors of Lck kinase purified from bovine thymus (from Upstate Biotechnology, cat. no. 14-106). Lck kinase activity was monitored by following the incorporation of ^33P from ATP into the tyrosine of a random poly Glu-Tyr polymer substrate of composition, Glu:Tyr=4:1 (Sigma, cat. no. P-0275). The following were the final concentrations of the assay components: 0.05 M HEPES, pH 7.6, 10 mM MgCl2, 2 mM DTT, 0.25 mg/ml BSA, 10 μM ATP (1-2 μCi ^33P-ATP per reaction), 5 mg/ml poly Glu-Tyr, and 1-2 units of lck kinase. In a typical assay, all the reaction components with the exception of ATP were pre-mixed and aliquoted into assay plate wells. […] The assay plate was incubated at 30° C. for 10 min before initiating the reaction with ^33P-ATP. After 20 min of reaction, the reactions were quenched with 150 μl of 10% trichloroacetic acid (TCA) containing 20 mM Na3PO4. The quenched samples were then transferred to a 96-well filter plate (Whatman, UNI-Filter GF/F Glass Fiber Filter, cat no. 7700-3310) installed on a filter plate vacuum manifold. Filter plates were washed four times with 10% TCA containing 20 mM Na3PO4 and then 4 times with methanol. 200 μl of scintillation fluid was then added to each well. The plates were sealed and the amount of radioactivity associated with the filters was quantified on a TopCount scintillation counter.

T1 sequence (P53779 40-402): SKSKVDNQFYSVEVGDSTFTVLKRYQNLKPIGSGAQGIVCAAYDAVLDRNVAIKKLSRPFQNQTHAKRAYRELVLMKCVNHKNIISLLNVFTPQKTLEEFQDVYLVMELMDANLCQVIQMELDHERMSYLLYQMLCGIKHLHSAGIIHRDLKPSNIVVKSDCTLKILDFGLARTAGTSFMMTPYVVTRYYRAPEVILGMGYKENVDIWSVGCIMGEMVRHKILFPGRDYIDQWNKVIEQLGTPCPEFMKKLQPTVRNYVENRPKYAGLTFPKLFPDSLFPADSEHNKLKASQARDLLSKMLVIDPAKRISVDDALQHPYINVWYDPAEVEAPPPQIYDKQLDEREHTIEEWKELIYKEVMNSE
T2 sequence (Q3ZCM0 1-509): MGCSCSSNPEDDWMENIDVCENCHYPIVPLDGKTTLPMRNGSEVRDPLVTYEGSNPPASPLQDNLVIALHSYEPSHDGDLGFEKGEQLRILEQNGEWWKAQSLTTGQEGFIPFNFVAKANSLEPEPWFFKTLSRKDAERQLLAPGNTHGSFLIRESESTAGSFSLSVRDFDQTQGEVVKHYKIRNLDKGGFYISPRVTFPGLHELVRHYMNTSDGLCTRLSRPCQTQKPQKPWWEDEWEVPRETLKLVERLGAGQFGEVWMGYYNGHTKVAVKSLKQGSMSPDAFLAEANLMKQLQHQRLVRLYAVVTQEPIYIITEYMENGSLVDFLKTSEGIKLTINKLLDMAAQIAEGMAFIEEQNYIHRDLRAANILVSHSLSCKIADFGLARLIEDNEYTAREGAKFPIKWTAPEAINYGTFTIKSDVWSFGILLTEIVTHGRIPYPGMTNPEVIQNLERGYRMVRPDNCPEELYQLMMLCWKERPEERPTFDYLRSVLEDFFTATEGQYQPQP

Row | Structure (SMILES) | Ki (activated JNK3) | Ki (CDK-2/Cyclin A) | Ki [1] | Activity in the Lck Inhibition Assay (percent inhibition rating D-F) ([1]; at a 5 μM inhibitor concentration)
1 | COc1cc(-c2ccnc(Nc3c(F)cccc3F)n2)cc(OC)c1OC [Compound I-2] | 0.1 to 1 µM | > 5 µM |  | 
2 | COc1cc(-c2ccnc(Nc3ccccc3C)n2)cc(OC)c1OC [Compound I-7] | 0.1 to 1 µM | > 5 µM |  | 
3 | COc1cc(-c2ccnc(Nc3c(C)cccc3C)n2)cc(OC)c1OC [Compound I-8] | > 1 µM | > 5 µM |  | 
4 | COc1cc(-c2ccnc(Nc3ccc([N+](=O)[O-])cc3)n2)cc(OC)c1OC [Compound I-11] | < 0.1 µM | > 5 µM |  | 
5 | COc1cc(-c2ccnc(Nc3ccc(F)cc3)n2)cc(OC)c1OC [Compound I-14] | > 1 µM |  |  | 
6 | COc1cc(-c2ccnc(Nc3ccccc3)n2)cc(OC)c1OC [Compound I-15] | < 0.1 µM | > 5 µM |  | 
7 | COc1cc(-c2ccnc(Nc3ccccc3C)n2)cc(OC)c1OC [Compound I-16] | < 0.1 µM | > 5 µM |  | 
8 | COc1cc(-c2ccnc(Nc3ccc(C)cc3)n2)cc(OC)c1OC [Compound I-17] | < 0.1 µM |  |  | 
9 | COc1cc(-c2ccnc(Nc3cccc(C(F)(F)F)c3)n2)cc(OC)c1OC [Compound I-19] | < 0.1 µM | > 5 µM |  | 
10 | COc1ccc(Nc2nccc(-c3cc(OC)c(OC)c(OC)c3)n2)cc1 [Compound I-21] | < 0.1 µM |  |  | 
11 | COc1cc(-c2ccnc(Nc3cc(Cl)cc(Cl)c3)n2)cc(OC)c1OC [Compound I-23] | < 0.1 µM | > 5 µM |  | 
12 | COc1cc(-c2ccnc(Nc3cc(C)cc(C)c3)n2)cc(OC)c1OC [Compound I-24] | 0.1 to 1 µM | > 5 µM |  | 
13 | COc1cc(-c2ccnc(Nc3ccc(C)c(C)c3)n2)cc(OC)c1OC [Compound I-25] | < 0.1 µM |  |  | 
14 | COc1cc(-c2ccnc(Nc3ccccc3)n2)cc2c1OCO2 [Compound I-26, [4-(7-Methoxy-benzo[1,3]dioxol-5-yl)-pyrimidin-2-yl]-phenyl-amine] | 0.1 to 1 µM | > 5 µM |  | 
15 | COc1cc(-c2ccnc(Nc3cccc(C)c3)n2)cc2c1OCO2 [Compound I-27] | > 1 µM |  |  | 
16 | COc1cc(-c2ccnc(Nc3ccc(C)cc3)n2)cc2c1OCO2 [Compound I-28] | 0.1 to 1 µM |  |  | 
17 | COc1cc(-c2ccnc(Nc3cccc(F)c3)n2)cc2c1OCO2 [Compound I-29] | 0.1 to 1 µM |  |  | 
18 | COc1cc(-c2ccnc(Nc3cccc(Cl)c3)n2)cc2c1OCO2 [Compound I-30] | > 1 µM |  |  | 
19 | COc1cc(-c2ccnc(Nc3cccc(C(F)(F)F)c3)n2)cc2c1OCO2 [Compound I-31] | > 1 µM |  |  | 
20 | COc1cccc(Nc2nccc(-c3cc(OC)c4c(c3)OCO4)n2)c1 [Compound I-32] | 0.1 to 1 µM | > 5 µM |  | 
21 | COc1ccc(Nc2nccc(-c3cc(OC)c4c(c3)OCO4)n2)cc1 [Compound I-33] | 0.1 to 1 µM | > 5 µM |  | 
22 | COc1cc(-c2ccnc(Nc3cccc([N+](=O)[O-])c3)n2)cc(OC)c1OC [Compound I-36] | < 0.1 µM | > 5 µM |  | 
23 | CCOc1c(OC)cc(-c2ccnc(Nc3cccc(Cl)c3)n2)cc1OC [Compound I-40] | < 0.1 µM | > 5 µM |  | 

Row | Structure (SMILES) | Ki (activated JNK3) | Ki (CDK-2/Cyclin A) | Ki [1] | Activity in the Lck Inhibition Assay (percent inhibition rating D-F) ([1]; at a 5 μM inhibitor concentration)
24 | COc1cc(-c2ccnc(Nc3cccc(F)c3)n2)cc(OC)c1OCCN1CCOCC1 [Compound I-44] | < 0.1 µM | > 5 µM |  | 
25 | CCOc1c(OC)cc(-c2ccnc(Nc3cccc(F)c3)n2)cc1OC [Compound I-45] | < 0.1 µM | > 5 µM |  | 
26 | COc1c(Cl)cc(-c2ccnc(Nc3cccc(F)c3)n2)cc1Cl [Compound I-46] | 0.1 to 1 µM | > 5 µM |  | 
27 | COc1c(C)cc(-c2ccnc(Nc3cccc(F)c3)n2)cc1C [Compound I-47] | < 0.1 µM |  |  | 
28 | COc1cc(-c2ccnc(Nc3cccc(C)c3)n2)cc(OC)c1OCCN1CCOCC1 [Compound I-53] | < 0.1 µM | > 5 µM |  | 
29 | CCOc1c(OC)cc(-c2ccnc(Nc3cccc(C)c3)n2)cc1OC [Compound I-54] | < 0.1 µM | > 5 µM |  | 
30 | COc1c(Cl)cc(-c2ccnc(Nc3cccc(C)c3)n2)cc1Cl [Compound I-55] | < 0.1 µM | > 5 µM |  | 
31 | COc1cc(-c2ccnc(Nc3cccc(OCc4ccccc4)c3)n2)cc(OC)c1OC [Compound I-56] | > 1 µM | > 5 µM |  | 
32 | CCc1nnc(Nc2nccc(-c3cc(OC)c(OC)c(OC)c3)n2)s1 [Compound I-84] | > 1 µM |  |  | 
33 | COc1cc(-c2ccnc(Nc3cccc(Cl)c3)c2)cc(OC)c1OC [Compound I-146, (3-Chlorophenyl)-[4-(3,4,5-trimethoxyphenyl)-pyridin-2-yl]-amine] | 0.1 to 1 µM |  |  | 
34 | COc1cc(-c2ccnc(Nc3ccccc3Cl)c2)cc(OC)c1OC [Compound I-147] | 0.1 to 1 µM |  |  | 
35 | COc1cc(-c2ccnc(Nc3c(F)cccc3F)c2)cc(OC)c1OC [Compound I-151] | 0.1 to 1 µM |  |  | 
36 | COc1cc(-c2ccnc(Nc3cccc(F)c3)c2)cc(OC)c1OC [Compound I-154] | 0.1 to 1 µM |  |  | 
37 | COc1cc(-c2ccnc(Nc3ccccc3)c2)cc(OC)c1OC [Compound I-155] | 0.1 to 1 µM |  |  | 
38 | COc1ccc(-c2ccnc(Nc3cccc(OCc4ccccc4)c3)n2)c(OC)c1OC [II-2] |  |  | 0.1 to 1 µM | 
39 | COc1ccc(-c2ccnc(Nc3ccc([N+](=O)[O-])cc3)n2)c(OC)c1OC [II-4] |  |  | 0.1 to 1 µM | 
40 | COc1ccc(-c2ccnc(Nc3cccc(F)c3)n2)c(OC)c1OC [II-5] |  |  | > 1 µM | 
41 | COc1cccc(Nc2nccc(-c3ccc(OC)c(OC)c3OC)n2)c1 [II-6] |  |  | 0.1 to 1 µM | 
42 | COc1ccc(-c2ccnc(Nc3cccc(C)c3)n2)c(OC)c1OC [II-10] |  |  | > 1 µM | 
43 | COc1ccc(Nc2nccc(-c3ccc(OC)c(OC)c3OC)n2)cc1 [II-12] |  |  | 0.1 to 1 µM | 
44 | COc1ccc(-c2ccnc(Nc3cc(C)cc(C)c3)n2)c(OC)c1OC [II-14, (3,5-Dimethylphenyl)-[4-(2,3,4-trimethoxyphenyl)-pyrimid-2-yl]-amine] |  |  |  | F (percent inhibition of between 67% and 100%)
45 | COc1ccc(-c2ccnc(Nc3cccc(Oc4ccccc4)c3)n2)c2c1OCCO2 [II-15] |  |  | 0.1 to 1 µM | 
46 | COc1ccc(-c2ccnc(Nc3n[nH]c4ccccc34)n2)c(OC)c1OC [II-56] |  | > 5 µM |  | 
